IC50 and IC90 data for 73 compounds are collected here from PubChem BioAssay AID449764 (Southern Research Specialized Biocontainment Screening …, 2010).

The assay concerns Mycobacterium tuberculosis H37Rv growth inhibition, no glycerol. As to the kind of experiment: Confirmatory growth inhibition assay, Mycobacterium tuberculosis H37Rv, absence of glycerol (AID 449764).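 For all read-outs here: growth read after 7 days of incubation.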 To be noted: for IC90: measured here: IC90 growth inhibition.

A value given as a limit tells only on which side of the number the result lay.

On to `Cc1nc(SCC(=O)NCC2CCCO2)c2c3c(sc2n1)CCCC3` (centres undefined), for which the IC50 was 23 µM and the IC90 turned out to be 25.2 µM.
Consider `O=C(CCCCCNc1nc(=S)[nH]c2ccccc12)N1CCN(c2ccccn2)CC1`, for which the IC50 was 90.2 µM and the IC90 is more than 100 µM.
Take `CC1=NOC(=O)/C1=C/c1ccc(-c2ccc(Cl)cc2)o1`: the IC50 is 18.4 µM and the IC90 was more than 100 µM.
In the case of `O=C(Nc1ccc(N2CCN(C(=O)c3ccco3)CC2)cc1)C(c1ccccc1)c1ccccc1`, the IC50 was 24.1 µM and the IC90 was determined as 27.2 µM.
For `CCOC(=O)c1[nH]c2ccc(F)cc2c1NC(=O)CN1CCN(C/C=C/c2ccccc2)CC1` the same measures were 28.4 µM and 42.8 µM.
With `CCCCC(=O)/C=C/n1c(=S)oc2ccccc21`, the IC90 is more than 100 µM.
As to `COc1cccc2c1C(CO)N1C(C#N)C3CC(C(=O)O)C(C1C2)N3C` (centres undefined), the IC50 was 2.71 µM and the IC90 came out at 3 µM.
In the same order, the values of `COc1ccccc1C(CNC(=O)C(C)(C)Oc1ccc(Cl)cc1)N1CCCC1` (centres undefined) are 27 µM and 42 µM.
As for `O=c1[nH]c(=O)n(C2CCCO2)cc1F` (centres undefined), the IC50 was 57.1 µM and the IC90 was more than 100 µM.
In the case of `Cc1cc2oc3ccc(NCCCn4ccnc4)cc3c(=O)c2cc1C`, the IC50 was 23.2 µM and the IC90 stood at 25.7 µM.
For `O=S(=O)(Nc1ccc2[nH]ncc2c1)c1ccccc1Cl` the same measures were 11.3 µM and 17.1 µM.
For `CC1(C)c2[nH]c3ccccc3c2C[C@@H]2C(=O)N(Cc3ccccc3F)C(=O)N21` the same measures were 49.3 µM and more than 50 µM.
Regarding `CCCCCCCCn1cnc2c(N)c(C)c(C)cc21`, the IC50 was 59.8 µM and the IC90 is 78.3 µM.
For `O=C(CSc1nnnn1-c1ccc2c(c1)OCCO2)OC1CCCCC1` the same measures were 22.8 µM and 25.7 µM.
For `CC1Cc2cc(-c3csc(NC(=O)Cc4cccs4)n3)ccc2N1S(C)(=O)=O` (centres undefined), the concentration for half-maximal inhibition (IC50) was 36.2 µM and the IC90 was more than 100 µM.
Take `O=C(CSc1ccc(Cl)cc1)N1CCC(c2nc3ccccc3s2)CC1`: the IC50 was 53.8 µM and the IC90 stood at 68.3 µM.
Consider `O=[N+]([O-])c1ccc(-c2nc(-c3cccs3)c(-c3cccs3)[nH]2)cc1`, for which the IC50 is 20.8 µM and the 90% effect concentration (IC90) was more than 100 µM.
For the compound `CCn1c(=O)c(CCC(=O)N2CCN(c3ccccn3)CC2)c(C)c2c(C)nn(-c3cccc(C)c3)c21`, the IC50 was 21.8 µM and the IC90 was more than 100 µM.
Compound `Cn1c(=O)n(Cc2ccccc2)c(=O)c2c1nc1n2CCCN1C1CCCCC1` returned an IC90 of more than 100 µM.
`Cc1nn(-c2ccccc2)c(C)c1/C=N/NC(=O)c1cc(-c2cccc3ccccc23)n[nH]1`: the IC50 is 48.3 µM and the 90% effect concentration (IC90) was more than 100 µM.
For the compound `c1ccc(-n2cnc3cc(NCc4cccs4)ccc32)cc1`, the IC50 is 89 µM and the 90% effect concentration (IC90) is more than 100 µM.
Consider `C[CH2][Hg][S]c1ccccc1C(=O)O`, for which the IC50 was 0.52 µM and the IC90 is 1.26 µM.
On to `CCCn1nc(C(=O)NNC(=O)c2ccc(C)c(C)c2)c2ccccc2c1=O`, for which the IC50 was 24.6 µM and the IC90 stood at 27.9 µM.
With `COc1ccc(-c2nnc3sc(C4CCCCC4)nn23)cc1OC`, the half-inhibitory concentration (IC50) is 45.6 µM and the IC90 worked out at 51.6 µM.
With `O=[N+]([O-])c1ccc(Sc2cc[n+]([O-])c3ccccc23)c([N+](=O)[O-])c1`, the IC50 was 40.5 µM and the IC90 stood at 56.1 µM.
`Cc1nc2ccccc2c2nc3ccccc3n12`: the IC50 was 30.6 µM and the IC90 amounted to 48.4 µM.
In the case of `Cn1ncnc2c(=O)n(C)c(=O)nc1-2`, the IC50 was 2.84 µM and the IC90 came to 4.51 µM.
Consider `O=C(Nc1ccc(OC(F)(F)F)cc1)c1ccc2c(c1)no[n+]2[O-]`, for which the half-inhibitory concentration (IC50) was 0.24 µM and the IC90 was 0.32 µM.
Regarding `CC(C)(C)c1nn(-c2ccccc2)c2[nH]c(=O)c(CNCc3ccc4c(c3)OCO4)cc12`, the IC50 was 20.8 µM and the IC90 stood at 34.4 µM.
Regarding `CCOC(=O)c1nc2sc3c(c2c(=O)[nH]1)CCC(C)C3` (centres undefined), the IC50 was 69.8 µM and the IC90 was more than 100 µM.
In the same order, the values of `Cc1cc(C)cc(NC(=O)c2ccc(Cn3nc(C)c(Cl)c3C)o2)c1` are 34.8 µM and 48.3 µM.
Take `O=C(OCn1ncc(Br)c(Br)c1=O)c1ccc(F)cc1`: the IC50 was 2.9 µM and the IC90 is 4.77 µM.
On to `CCCCCCCCCCC[N+](C)(C)CC/C=C1/c2ccccc2Sc2ccc(Cl)cc21`, for which the IC50 was 8.03 µM and the 90% effect concentration (IC90) stood at 9.28 µM.
As to `Cc1cc(N2CCN(c3ccc(C(F)(F)F)cc3[N+](=O)[O-])CC2)c2ccccc2n1`, the concentration for half-maximal inhibition (IC50) is 22.2 µM and the IC90 came out at 24.9 µM.
Consider `C[C@@H]1CCCCCCCCC(=O)OCCN[C@H](C)CCCCCCCCC(=O)OCCN[C@H](C)CCCCCCCCC(=O)OCCN1`, for which the IC50 was 31.8 µM and the IC90 came to 43.3 µM.
Consider `COc1ccc(NC(C)C(=O)Nc2ccc(C(C)(C)C)cc2)cc1Cl` (centres undefined), for which the IC50 was 94.1 µM and the IC90 was more than 100 µM.
As to `Cc1ccc(C(C(=O)NCC2CCCO2)N(Cc2ccccc2)C(=O)c2ccc(-c3ccccc3)[nH]2)o1` (centres undefined), the IC50 was 60.9 µM and the IC90 was more than 100 µM.
For the compound `CCCCOc1ccc(C(=O)Oc2ccc(C)nc2)cc1`, the IC50 was 54.8 µM and the concentration for an effect of 90% (IC90) was 78.8 µM.
With `S=C(NCCc1ccccc1)NN=C1CCCCCC1`, the IC50 is 45.8 µM and the IC90 was found to be 50.1 µM.
`CSCCCNC(=S)N1CCN(c2ccc(C(C)=O)cc2)CC1`: the IC50 was 37.2 µM and the concentration for an effect of 90% (IC90) worked out at 49.7 µM.
Regarding `O=C1/C(=C\c2ccncc2)CCc2ccccc21`, the IC50 is 45.9 µM and the IC90 came to 49.7 µM.
As to `Cc1ccccc1CSc1nsc(N)n1`, the IC50 is 9.03 µM and the IC90 was determined as 24.1 µM.
In the case of `Cc1cc2nc(/N=C(\N)NC(=O)C(C)C)nc(C)c2cc1C`, the IC50 is 18.1 µM and the IC90 was more than 100 µM.
`O=C(N/N=C\c1ccc[nH]1)c1cncc(Br)c1`: the 50% inhibitory concentration (IC50) was 45.3 µM and the 90% effect concentration (IC90) was 50.8 µM.
For `CCOc1ncccc1C(=O)OCC(=O)N1CCc2ccccc21` the same measures were 25.5 µM and more than 100 µM.
`c1ccc(CCN2CCN(c3ncnc4c3cnn4-c3ccccc3)CC2)cc1`: the concentration for half-maximal inhibition (IC50) is 47.7 µM and the IC90 came out at 91.1 µM.
As to `CCC(=O)NC(=S)Nc1ccc(NC(=O)COc2ccc(Cl)cc2Cl)cc1`, the IC50 was 79.3 µM and the IC90 is more than 100 µM.
Take `Cc1ccc(-n2nc3c(N4CCC(C(=O)NCc5ccccc5C)CC4)nnc(C)c3c2C)cc1`: the IC50 is 71.8 µM and the IC90 was more than 100 µM.
In the same order, the values of `Cc1ccc(CN2CC(C(=O)OCc3ccccc3Cl)CC2=O)cc1` (centres undefined) are 11.1 µM and 29.6 µM.
For `CC(C)OC(=O)c1ccc(COC(=O)c2cnccn2)cc1` the same measures were 18 µM and more than 100 µM.
On to `Cc1cc(=O)oc2c(C)c(OCC(=O)N3CCN(C(=O)C4COc5ccccc5O4)CC3)ccc12` (centres undefined), for which the IC50 is 77.1 µM and the IC90 is more than 100 µM.
`Cc1cccc(CNc2ncnc3ccc(-c4ccc5c(c4)OCCO5)cc23)c1`: the IC50 was 10.1 µM and the IC90 stood at 12.7 µM.
For `Nc1ccc(Oc2ccc(F)cc2)nc1` the same measures were 70.1 µM and 85.7 µM.
On to `Cc1csc(NC(=S)Nc2cccc(Cl)c2)n1`, for which the IC50 is 4.42 µM and the IC90 was determined as 6.91 µM.
For `c1ccc(Cn2c3ccccc3c3nnc(SCCN4CCCCC4)nc32)cc1` the same measures were 27.5 µM and 42.1 µM.
Turning to `N#C/C(=C/c1ccc(Sc2nc3ccccc3[nH]2)o1)c1cccc(Br)c1`, the IC50 is 57.9 µM and the IC90 was more than 100 µM.
Turning to `Cc1ccc2nc3c(cc(C(=O)NCc4ccco4)c(=N)n3Cc3ccco3)c(=O)n2c1`, the IC50 is 53.6 µM and the IC90 is more than 100 µM.
As to `CCc1c(C)sc2nc3c(C(=O)N4CCOCC4)cc(C(=O)c4cc(F)ccc4O)cn3c(=O)c12`, the IC50 is 82.2 µM and the IC90 is more than 100 µM.
Turning to `O=C(OCC(=O)c1cccs1)C1=COCCO1`, the IC50 was 29.9 µM and the IC90 is more than 100 µM.
Take `Cc1cccc(/C=C/C(=O)c2ccc([N+](=O)[O-])o2)c1`: the IC50 is less than 0.2 µM and the IC90 was less than 0.2 µM.
`COc1ccc(-c2csc(NC(C)c3nc4cc(Cl)c(N5CCCCC5)cc4n3CCCO)n2)cc1` (centres undefined): the half-maximal inhibitory concentration (IC50) is 23 µM and the IC90 was 26.2 µM.
In the case of `COCCNC(=S)N/N=C(\C)c1ccc(OC)cc1`, the IC50 was 43.6 µM and the IC90 was found to be 49 µM.
Take `COc1cc(C(=O)N/N=C/c2cc([N+](=O)[O-])cs2)cc(OC)c1OC`: the IC50 was 8.58 µM and the IC90 was more than 100 µM.
On to `CC(=O)c1c(C)n(C)c2ccc(OC(=O)c3ccc([N+](=O)[O-])cc3)cc12`, for which the IC50 is 19.8 µM and the IC90 is more than 100 µM.
As to `COc1ccc(-n2nnnc2S(=O)(=O)CC(=O)N2CCCCC2)cc1`, the half-maximal inhibitory concentration (IC50) was 12.5 µM and the IC90 was found to be 20.9 µM.
For the compound `Cc1onc(-c2c(F)cccc2Cl)c1C(=O)O/N=C(\N)c1ccc([N+](=O)[O-])o1`, the IC50 is 14.4 µM and the 90% effect concentration (IC90) came to 27.6 µM.
`Cc1ccc(S(=O)(=O)Nc2cccc3ncccc23)s1`: the IC50 is 3.38 µM and the IC90 amounted to 6.54 µM.
For `O=C(c1cc2cc(Cl)ccc2[nH]1)N1CCN(Cc2ccc3c(c2)OCO3)CC1` the same measures were 24.2 µM and more than 25 µM.
Consider `CC1(c2cc([N+](=O)[O-])cc([N+](=O)[O-])c2)CC(C)(C)N(C(=O)c2ccccc2)c2ccccc21` (centres undefined), for which the IC50 is 20.8 µM and the IC90 was determined as 28.9 µM.
In the case of `CCOC(=O)c1cc(-c2ccccc2)nc2c1c(C)nn2-c1ccccn1`, the IC50 was 19.3 µM and the concentration for an effect of 90% (IC90) stood at 44.3 µM.
In the same order, the values of `c1ccc(-c2nnc(-c3ccccn3)nn2)nc1` are 6.07 µM and 6.86 µM.
For `CCCCCCCNC(=O)C1(CC2CC(c3cccc(Br)c3)=NO2)CCNCC1` (centres undefined), the IC50 was 52.1 µM and the IC90 was determined as 80.4 µM.
For `CC1CCCC(C)N1/N=C/c1c[nH]c2ccc(Br)cc12` (centres undefined) the same measures were 22.7 µM and 29.1 µM.
